Assay results as given in patent publication US20090023773A1, “COMPOSITIONS AND METHODS FOR MODULATING GATED ION CHANNELS” (PainCeptor Pharma Corporation, priority 2007, published 2009).

Biological target: T1, hASIC2a/3 steady state (window) current (Homo sapiens, UniProt Q16515+Q9UHC3)
T1 construct: expressed in transfected cells; host or cells: Xenopus laevis oocytes, cRNA microinjection, 1:1 mass ratio
T1 sequence (Q16515 1-512): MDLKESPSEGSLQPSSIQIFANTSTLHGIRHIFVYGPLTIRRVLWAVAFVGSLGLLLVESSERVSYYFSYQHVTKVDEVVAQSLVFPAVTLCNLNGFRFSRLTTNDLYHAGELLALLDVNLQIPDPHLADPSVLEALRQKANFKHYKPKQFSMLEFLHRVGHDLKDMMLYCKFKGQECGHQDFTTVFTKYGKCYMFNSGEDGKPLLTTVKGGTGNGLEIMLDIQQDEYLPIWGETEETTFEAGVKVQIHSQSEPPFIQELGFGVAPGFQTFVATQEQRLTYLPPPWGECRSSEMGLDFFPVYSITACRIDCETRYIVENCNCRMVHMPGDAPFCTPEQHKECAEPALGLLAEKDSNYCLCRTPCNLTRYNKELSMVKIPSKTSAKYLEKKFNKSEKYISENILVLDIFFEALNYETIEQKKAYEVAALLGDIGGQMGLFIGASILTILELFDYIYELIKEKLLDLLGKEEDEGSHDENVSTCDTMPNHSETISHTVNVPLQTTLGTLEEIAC
T1 sequence (Q9UHC3 1-531): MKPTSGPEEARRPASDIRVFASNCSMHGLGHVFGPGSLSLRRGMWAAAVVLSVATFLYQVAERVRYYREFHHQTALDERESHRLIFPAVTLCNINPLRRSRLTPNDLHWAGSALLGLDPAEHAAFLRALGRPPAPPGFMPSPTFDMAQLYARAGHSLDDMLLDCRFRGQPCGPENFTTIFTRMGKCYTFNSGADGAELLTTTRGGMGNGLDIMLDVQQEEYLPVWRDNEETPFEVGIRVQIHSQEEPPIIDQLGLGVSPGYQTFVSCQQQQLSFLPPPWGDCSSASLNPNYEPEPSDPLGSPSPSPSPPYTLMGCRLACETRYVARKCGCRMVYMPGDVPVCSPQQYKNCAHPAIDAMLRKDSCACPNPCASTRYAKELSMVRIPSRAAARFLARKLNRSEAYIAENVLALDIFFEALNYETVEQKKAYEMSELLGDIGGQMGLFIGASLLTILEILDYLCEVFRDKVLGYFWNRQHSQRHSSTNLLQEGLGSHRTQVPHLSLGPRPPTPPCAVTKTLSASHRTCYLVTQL
Experiment: ASIC2a/3 assay, automated two-electrode voltage clamp in oocytes microinjected with hASIC2a and hASIC3 (Example 2)
Assay type: cell-based
Settings: 50 μM, perfusion at pH 6.5; FIG. 8
Method: The ASIC2a/3 assay involves methods and procedures commonly in use and have been extensively described in the literature.
Briefly, a mature female frog is placed on its back after anesthesia, 20 min in 0.1% (w/v) Tricaine (Sigma), and incision is made on the lower abdomen through the skin, muscle and into the peritoneum. Lobes of ovaries are pulled out with forceps, cut and placed in a solution of Ca^2+-free Barth's with 1% (w/v) collagenase Type I (Sigma) added, for 90 minutes. The dissociated eggs are then washed with complete Barth's, supplementd with […] Gentamycin.
Plasmids containing cDNA for ASIC2a+ASIC3 are linearized and used for cRNA synthesis. The synthesis is done according to the protocol insert of the synthesis kit (e.g. Message Machine, Ambion). The final resuspension of the cRNA is made to provide a concentration of 1 μg/μL. The cDNA's for hASIC2a and hASIC3 are mixed with a 1:1 mass ratio and injected at […] per oocyte. Micro-injected oocytes start expressing hASIC2a3 specific current after 24 h.
The oocytes micro-injected with hASIC2a and hASIC3 cRNA's are placed in the recording chambers of the automated rig and then impaled with the voltage and current micro-electrodes. […] The voltage and current for each oocyte is recorded in one pass during both applications for later analysis. […]

## Cc1ccc(-c2nc(Nc3ccc(C(=O)O)cc3)c3cc(Cl)ccc3n2)cc1 [Compound 124]
  inhibition of the ASIC 2a/3 current: specific inhibition
